The source of these data is patent US10723705B2, “Heterocyclic compounds and uses thereof” (Incyte Corporation, priority 2015, dated 2020).

Bounds are passed on as bounds.

As usually defined, the IC50 is the concentration that inhibits the measured activity by half.

For the first experiment, the target named is Human recombinant Histone Deacetylase 8 (HDAC8) (Homo sapiens (Human), UniProt Q9BY41). The experiment can be described thus: HDAC8 Enzymatic Assay (HDAC-Glo I/II luminescence). It counts as biochemical. To be noted: HDAC8; read-out: IC50. In a few lines: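 Human recombinant HDAC8 (1.5 nM final) preincubated with compound for 30 min, then reacted with 50 μM Boc-GAK(Ac)-aminoluciferin plus trypsin-containing developer for 15 min at room temperature, pH 8.0, 0.5% DMSO. Luminescence read-out; IC50 from percent control activity versus log concentration.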
Sequence of Human recombinant Histone Deacetylase 8 (HDAC8) (Q9BY41 whole entry): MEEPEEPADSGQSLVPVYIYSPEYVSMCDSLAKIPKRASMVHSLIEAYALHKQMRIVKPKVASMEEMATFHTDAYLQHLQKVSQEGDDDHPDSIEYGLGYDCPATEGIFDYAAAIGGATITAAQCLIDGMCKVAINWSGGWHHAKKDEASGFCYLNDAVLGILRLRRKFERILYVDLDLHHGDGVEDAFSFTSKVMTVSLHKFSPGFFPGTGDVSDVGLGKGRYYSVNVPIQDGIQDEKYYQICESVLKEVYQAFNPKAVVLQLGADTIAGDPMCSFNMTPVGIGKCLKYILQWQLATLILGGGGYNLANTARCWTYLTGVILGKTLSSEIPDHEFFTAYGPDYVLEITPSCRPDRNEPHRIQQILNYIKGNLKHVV
For the compound `CC1CCN(c2cccc3nn(C(Cc4ccccc4)C(=O)NO)cc23)CC1` (stereo not drawn) [Compound I-0145, N-hydroxy-2-(4-(4-methylpiperidin-1-yl)-2H-indazol-2-yl)-phenylpropanamide], the half-maximal inhibitory concentration (IC50) came out at 717 nM. With `O=C(NO)C(Cc1ccccc1)n1cc2cccc(C(=O)N3CCOCC3)c2n1` (stereo not drawn) [Compound I-0173, N-hydroxy-2-[7-(morpholin-4-ylcarbonyl)-2H-indazol-2-yl]-3-phenylpropanamide], the IC50 worked out at 1170 nM.

Still in this experiment, the particulars now being: class symbols, Table 14; read-out: HDAC8 IC50.
`CC(C)Oc1ccc(-c2cccc3nn(C(Cc4ccccc4)C(=O)NO)cc23)cn1` (stereo not drawn) [Compound I-0146, N-hydroxy-2-(4-(6-isopropoxypyridin-3-yl)-2H-indazol-2-yl)-3-phenylpropanamide]: the IC50 lay in the range of 200 to 500 nM. On the same count and under the same terms, in the case of `COCc1ccc(-c2cccc3nn(C(Cc4ccccc4)C(=O)NO)cc23)cc1` (stereo not drawn) [Compound I-0147, N-hydroxy-2-(4-(4-(methoxymeth-yl)phenyl)-2H-indazol-2-yl)-3-phenylpropanamide] it was 200 to 500 nM. `CN1CCN(c2ccc(-c3cccc4nn(C(Cc5ccccc5)C(=O)NO)cc34)cc2)CC1` (stereo not drawn) [Compound I-0148, N-hydroxy-2-(4-(4-(4-methylpiperazin-1-yl)phenyl)-2H-indazol-2-yl)-3-phenylpropanamide]: the 50% inhibitory concentration (IC50) fell in the range of 50 to 200 nM. Same read-out and setting: the value for `CN1CCN(c2ccc(-c3cccc4nn(C(Cc5ccccc5)C(=O)NO)cc34)cn2)CC1` (stereo not drawn) [Compound I-0149, N-hydroxy-2-(4-(6-(4-methylpiperazin-1-yl)pyridin-3-yl)-2H-indazol-2-yl)-3-phenylpropanamide] was 50 to 200 nM; that for `COCc1ccc(-c2ccn3c(C(Cc4ccccc4)C(=O)NO)cnc3c2)cc1` (stereo not drawn) [Compound I-0150, N-hydroxy-2-(7-(4-(methoxymethyl)phenyl)imidazo[1,2-a]pyridin-3-yl)-3-phenylpropanamide] was above 500 nM; that for `CN1CCN(c2ccc(-c3ccn4c(C(Cc5ccccc5)C(=O)NO)cnc4c3)cc2)CC1` (stereo not drawn) [Compound I-0151, N-hydroxy-2-(7-(4-(4-methylpiperazin-1-yl)phenyl)imidazo[1,2-a]pyridin-3-yl)-3-phenylpropanamide] was above 500 nM. Turning to `CN1CCN(c2ccc(-c3ccn4c(C(Cc5ccccc5)C(=O)NO)cnc4c3)cn2)CC1` (stereo not drawn) [Compound I-0152, N-hydroxy-2-(7-(6-(4-methylpiperazin-1-yl)pyridin-3-yl)imidazo[1,2-a]pyridin-3-yl)-3-phenylpropanamide], the half-inhibitory concentration (IC50) was 200 to 500 nM. The same measure, in the same setting: the value for `O=C(NO)C(Cc1ccccc1)n1ncc2cc(C3CCC(N4CCCC4)CC3)ccc21` (stereo not drawn) [Compound I-0153, N-hydroxy-3-phenyl-2-(5-(4-(pyrrolidin-1-yl)cyclohexyl)-1H-indazol-1-yl)propanamide] was 50 to 200 nM; that for `O=C(NO)C(Cc1ccccc1)n1nc2c(-c3ccncc3)cccc2c1C#CC1CC1` (stereo not drawn) [Compound I-0154, 2-(3-(cyclopropylethynyl)-7-(pyridin-4-yl)-2H-indazol-2-yl)-N-hydroxy-3-phenylpropanamide] was at most 50 nM; that for `O=C(NO)C(Cc1ccccc1)n1nc2c(-c3cccnc3)cccc2c1C#CC1CC1` (stereo not drawn) [Compound I-0155, 2-(3-(cyclopropylethynyl)-7-(pyridin-3-yl)-2H-indazol-2-yl)-N-hydroxy-3-phenylpropanamide] was at most 50 nM. Consider `O=C(NO)C(Cc1ccccc1)n1nc2c(-c3cncnc3)cccc2c1C#CC1CC1` (stereo not drawn) [Compound I-0156, 2-(3-(cyclopropylethynyl)-7-(pyrimidin-5-yl)-2H-indazol-2-yl)-N-hydroxy-3-phenylpropanamide], for which the IC50 is at most 50 nM. On the same count and under the same terms, the value for `NC(=O)c1cccc(-c2cccc3c(C#CC4CC4)n(C(Cc4ccccc4)C(=O)NO)nc23)c1` (stereo not drawn) [Compound I-0157, 3-(3-(cyclopropylethynyl)-2-(1-(hydroxyamino)-1-oxo-3-phenylpropan-2-yl)-2H-indazol-7-yl)benzamide] was at most 50 nM; that for `CNC(=O)c1cccc(-c2cccc3c(C#CC4CC4)n(C(Cc4ccccc4)C(=O)NO)nc23)c1` (stereo not drawn) [Compound I-0158, 3-(3-(cyclopropylethynyl)-2-(1-(hydroxyamino)-1-oxo-3-phenylpropan-2-yl)-2H-indazol-7-yl)-N-methylbenzamide] was at most 50 nM; that for `CN(C)C(=O)c1cccc(-c2cccc3c(C#CC4CC4)n(C(Cc4ccccc4)C(=O)NO)nc23)c1` (stereo not drawn) [Compound I-0159, 3-(3-(cyclopropylethynyl)-2-(1-(hydroxyamino)-1-oxo-3-phenylpropan-2-yl)-2H-indazol-7-yl)-N,N-dimethylbenzamide] was at most 50 nM. On the same count and under the same terms, in the case of `O=C(NO)C(Cc1ccccc1)n1nc2c(C3CC3)cccc2c1C#CC1CC1` (stereo not drawn) [Compound I-0160, 2-(7-cyclopropyl-3-(cyclopropylethynyl)-2H-indazol-2-yl)-N-hydroxy-3-phenylpropanamide] it was at most 50 nM; in that of `Cc1cccc2c(C#CC3CC3)n(C(Cc3ccccc3)C(=O)NO)nc12` (stereo not drawn) [Compound I-0161, 2-(3-(cyclopropylethynyl)-7-methyl-2H-indazol-2-yl)-N-hydroxy-3-phenylpropanamide], at most 50 nM; in that of `O=C(NO)C(Cc1ccccc1)c1cnc2c(-c3ccncc3)cccn12` (stereo not drawn) [Compound I-0162, N-hydroxy-3-phenyl-2-(8-(pyridin-4-yl)imidazo[1,2-a]pyridin-3-yl)propanamide], 200 to 500 nM. Regarding `O=C(NO)C(Cc1ccccc1)c1cnc2c(-c3cccnc3)cccn12` (stereo not drawn) [Compound I-0163, N-hydroxy-3-phenyl-2-(8-(pyridin-3-yl)imidazo[1,2-a]pyridin-3-yl)propanamide], the IC50 was above 500 nM. With `O=C(NO)C(Cc1ccccc1)c1cnc2c(-c3cncnc3)cccn12` (stereo not drawn) [Compound I-0164, N-hydroxy-3-phenyl-2-(8-pyrimidin-5-ylimidazo[1,2-a]pyridin-3-yl)propanamide], the half-inhibitory concentration (IC50) is above 500 nM. Same read-out and setting: in the case of `COCCn1cc(-c2cccc3c(C#CC4CC4)n(C(Cc4ccccc4)C(=O)NO)nc23)c(C)n1` (stereo not drawn) [Compound I-0165, 2-(3-(cyclopropylethynyl)-7-(1-(2-methoxyethyl)-3-methyl-1H-pyrazol-4-yl)-2H-indazol-2-yl)-N-hydroxy-3-phenylpropanamide] it was at most 50 nM; in that of `Cc1n[nH]cc1-c1cccc2c(C#CC3CC3)n(C(Cc3ccccc3)C(=O)NO)nc12` (stereo not drawn) [Compound I-0166, 2-(3-(cyclopropylethynyl)-7-(3-methyl-1H-pyrazol-4-yl)-2H-indazol-2-yl)-N-hydroxy-3-phenylpropanamide], at most 50 nM. On the same count and under the same terms, in the case of `NC(=O)c1ccc(-c2cccn3c(C(Cc4ccccc4)C(=O)NO)cnc23)cc1` (stereo not drawn) [Compound I-0167, 4-(3-(1-(hydroxyamino)-1-oxo-3-phenylpropan-2-yl)imidazo[1,2-a]pyridin-8-yl)benzamide] it was 200 to 500 nM; in that of `CN(C)C(=O)c1ccc(-c2cccn3c(C(Cc4ccccc4)C(=O)NO)cnc23)cc1` (stereo not drawn) [Compound I-0168, 4-(3-(1-(hydroxyamino)-1-oxo-3-phenylpropan-2-yl)imidazo[1,2-a]pyridin-8-yl)-N,N-dimethylbenzamide], above 500 nM; in that of `NC(=O)c1cccc(-c2cccn3c(C(Cc4ccccc4)C(=O)NO)cnc23)c1` (stereo not drawn) [Compound I-0169, 3-(3-(1-(hydroxyamino)-1-oxo-3-phenylpropan-2-yl)imidazo[1,2-a]pyridin-8-yl)benzamide], 200 to 500 nM. The same measure, in the same setting: in the case of `O=C(NO)C(Cc1ccccc1)c1cnc2c(C3CC3)cccn12` (stereo not drawn) [Compound I-0170, 2-(8-cyclopropylimidazo[1,2-a]pyridin-3-yl)-N-hydroxy-3-phenylpropanamide] it was above 500 nM; in that of `Cc1cccn2c(C(Cc3ccccc3)C(=O)NO)cnc12` (stereo not drawn) [Compound I-0171, N-hydroxy-2-(8-methylimidazo[1,2-a]pyridin-3-yl)-3-phenylpropanamide], 200 to 500 nM; in that of `COC(=O)C(Cc1ccccc1)n1cc2cccc(C(=O)N3CCC(F)(F)CC3)c2n1` (stereo not drawn) [Compound I-0172, methyl 2-(7-(4,4-difluoropiperidine-1-carbonyl)-2H-indazol-2-yl)-3-phenylpropanoate], 200 to 500 nM. Consider `O=C(NO)C(Cc1ccccc1)n1cc2cccc(C(=O)N3CCOCC3)c2n1` (stereo not drawn) [Compound I-0173, N-hydroxy-2-[7-(morpholin-4-ylcarbonyl)-2H-indazol-2-yl]-3-phenylpropanamide], for which the IC50 was above 500 nM. For `O=C(NO)C(Cc1ccccc1)n1cc2cccc(C(=O)N3CCC4(CC3)COC4)c2n1` (stereo not drawn) [Compound I-0174, 2-(7-(2-oxa-7-azaspiro[3.5]nonane-7-carbonyl)-2H-indazol-2-yl)-N-hydroxy-3-phenylpropanamide], the IC50 is above 500 nM.

Regarding `O=C(NO)C(Cc1ccccc1)n1cc2cccc(C(=O)N3CCC4(CCOCC4)CC3)c2n1` (stereo not drawn) [Compound I-0175, 2-(7-(3-oxa-9-azaspiro[5.5]undecane-9-carbonyl)-2H-indazol-2-yl)-N-hydroxy-3-phenylpropanamide], the concentration for half-maximal inhibition (IC50) was above 500 nM. Turning to `O=C(NC1CCOCC1)c1cccc2cn(C(Cc3ccccc3)C(=O)NO)nc12` (stereo not drawn) [Compound I-0176, 2-(1-(hydroxyamino)-1-oxo-3-phenylpropan-2-yl)-N-(tetrahydro-2H-pyran-4-yl)-2H-indazole-7-carboxamide], the concentration for half-maximal inhibition (IC50) lay within 50 to 200 nM. Same read-out and setting: in the case of `O=C(NCC1CCOCC1)c1cccc2cn(C(Cc3ccccc3)C(=O)NO)nc12` (stereo not drawn) [Compound I-0177, 2-(1-(hydroxyamino)-1-oxo-3-phenylpropan-2-yl)-N-((tetrahydro-2H-pyran-4-yl)methyl)-2H-indazole-7-carboxamide] it was at most 50 nM; in that of `O=C(NCCC1CCOCC1)c1cccc2cn(C(Cc3ccccc3)C(=O)NO)nc12` (stereo not drawn) [Compound I-0178, 2-(1-(hydroxyamino)-1-oxo-3-phenylpropan-2-yl)-N-(2-(tetrahydro-2H-pyran-4-yl)ethyl)-2H-indazole-7-carboxamide], at most 50 nM; in that of `O=C(NCCN1CCOCC1)c1cccc2cn(C(Cc3ccccc3)C(=O)NO)nc12` (stereo not drawn) [Compound I-0179, 2-(1-(hydroxyamino)-1-oxo-3-phenylpropan-2-yl)-N-(2-morpholinoethyl)-2H-indazole-7-carboxamide], 50 to 200 nM.
